# According to patent US11464763B2, “Parasiticidal compositions comprising an isoxazoline active agent, methods and uses thereof” (BOEHRINGER INGELHEIM ANIMAL HEALTH USA INC., priority 2011, dated 2022):
# Experiments:
# [1] = system: R. sanguineus; test: Efficacious plasma concentration (EC90) against R. sanguineus ticks in dogs (Example 13); assay type: in vivo, Rhipicephalus sanguineus; conditions: for EC90 (concentration required to achieve 90% efficacy): plasma concentration
# [2] = system: Rhipicephalus (Boophilus) microplus; test: Pour-on tick weight efficacy against Rhipicephalus (Boophilus) microplus in cattle (Example 15); assay type: in vivo
# Experimental: The efficacy of two pour-on formulations of the invention comprising Compound A at doses of 2.5 mg/kg and 10 mg/kg were tested against infestations of Rhipicephalus (Boophilus) microplus ticks compared with an untreated control. Five healthy head of cattle of 6 to 15 months of age weighing between 100 to 200 kg were used in each study group. Cattle in Group 1 were untreated (control). Cattle in Group 2 were treated on Day 0 with a pour-on formulation comprising Compound A at a concentration of 2.5% (w/v) in DES at a dose of 2.5 mg/kg; and cattle in Group 3 were treated on Day 0 with a pour-on formulation comprising Compound A at a concentration of 10% (w/v) in DES at a dose of 10 mg/kg. Several weeks before treatment, cattle are infested three times a week with approximately 2500 Rhipicephalus (Boophilus) microplus larvae to establish ongoing infestations. Cattle in Groups 2 and 3 were treated with the respective compositions on Day 0 by measuring the required amount of the solution into a marked disposable syringe and applying the material evenly along the mid-line of the back of each animal from the withers to the tail head.
# Each animal was challenged by infestation with approximately 5000 R. microplus larvae on Days 7 and 21 and every 14 days thereafter. Ticks dropping from each animal in the previous 24 hours were collected daily and counted from Day 1 until the end of the study. Since the life cycle of the ticks from the point of infestation with larvae until engorged ticks fall off is approximately 21 days (average), the assessment of efficacy for the challenges on Days 7 and 21 and every 14 days thereafter, was done for a range of 7 or 8 days starting approximately 21 days after the challenge. The assessment of efficacy at the beginning of the study was done from day 1 until Day 21.
# In addition, the ticks collected were weighed as a group to measure the impact of the treatment on the weight gain of the ticks compared to the control to assess the vitality and reproductive capability of the treated ticks. […] Tables 16A and 16B show the % efficacy of the two pour-on formulations based on the weight of the ticks collected. […] As evidenced from the tables and the figures, the pour-on formulations of the invention at both 2.5 mg/kg and 10 mg/kg provide excellent efficacy against Rhipicephalus (Boophilus) microplus ticks for an extended period of time. […] Furthermore, as shown in Tables 16A and 16B, the two pour-on compositions were extremely effective against ticks based on the weight of the ticks collected. […] The extremely long lasting efficacy above 90% for pour-on composition against Rhipicephalus (Boophilus) microplus ticks is remarkable compared with pour-on formulations known in the art.
# [3] = system: Rhipicephalus sanguineus; test: Spot-on efficacy against Rhipicephalus sanguineus ticks in dogs, three DES formulations (Example 6); assay type: in vivo; conditions: for % Reduction: 48 h count
# Experimental: A further study was conducted to examine the efficacy of a topical formulations comprising Compound A in three different formulations containing DES against ticks in dogs. Twenty-four beagles were studied to determine the effectiveness against induced infestations of Rhipicephalus sanguineus of spot-on formulations comprising Cmpd. A in different carriers administered at 4.0 mg/kg to dogs.
# Treatment Group 1 dogs were treated with a placebo solution. Treatment Group 2 was treated with a formulation comprising 6% (w/v) Cmpd. A in DES; Treatment Group 3 were treated with a composition comprising 6% (w/v) Cmpd. A in 40% DES/DMI; and Treatment Group 4 were treated with a formulation comprising 6% (w/v) Cmpd. A in DES with 30% Capryol 90. All dogs were treated once topically on Day 0. Topical solutions were applied by parting the hair and applying the solution from a syringe directly onto the skin in a single spot on the midline of the neck between the base of the skull and the shoulder blades.
# All dogs were infested with approximately 50 R. sanguineus on Days −1, 7, 14, 21, 28, 35 and 42. Ticks were counted upon removal from dogs on Days 2, 9, 16, 23, 30, 37, and 44. All ticks were counted upon removal at 48 (±3) hours post treatment or infestation.
# The percent efficacies of the treated groups compared to the untreated control group were determined for the 48 hour post-treatment/infestation counts. Treatment Group 3 maintained ≥90% efficacy 48 hours after infestation at every sampling time from Day 9 through Day 44. Treatment Group 2 was able to maintain at least 90% efficacy 48 hours after infestation throughout the six weeks of the study.
structure (smiles),measurement,setting,value
"O=C(CNC(=O)c1ccc(C2=NOC(c3cc(Cl)cc(C(F)(F)F)c3)(C(F)(F)F)C2)c2ccccc12)NCC(F)(F)F (stereo not drawn) [Compound A, 4-[5-[3-chloro-5-(trifluoromethyl)phenyl]-4,5-dihydro-5-(trifluoromethyl)-3-isoxazolyl]-N-[2-oxo-2-[(2,2,2-trifluoroethyl)amino]ethyl]-1-naphthalanecarboxamide]","concentration required to achieve 90% efficacy, lower than the concentration required from oral administration","[1]; dogs, topical vs oral",~32%
same,EC90 (concentration required to achieve 90% efficacy),[1]; oral dosage form,0.101 µg/mL
same,EC90 (concentration required to achieve 90% efficacy),"[1]; topical, separate study",0.069 µg/mL
same,Average % Efficacy (Tick Weight),"[2]; Group 2: pour-on 2.5% (w/v) in DES, 2.5 mg/kg, Day 1-21",69.1%
same,Average % Efficacy (Tick Weight),"[2]; Group 2: pour-on 2.5% (w/v) in DES, 2.5 mg/kg, Day 28-34, Challenge Day 7",81.8%
same,Average % Efficacy (Tick Weight),"[2]; Group 2: pour-on 2.5% (w/v) in DES, 2.5 mg/kg, Day 41-48, Challenge Day 21",72.9%
same,Average % Efficacy (Tick Weight),"[2]; Group 2: pour-on 2.5% (w/v) in DES, 2.5 mg/kg, Day 55-62, Challenge Day 35",87.7%
same,Average % Efficacy (Tick Weight),"[2]; Group 2: pour-on 2.5% (w/v) in DES, 2.5 mg/kg, Day 69-76, Challenge Day 49",84.8%
same,Average % Efficacy (Tick Weight),"[2]; Group 2: pour-on 2.5% (w/v) in DES, 2.5 mg/kg, Day 83-90, Challenge Day 63",87.4%
same,Average % Efficacy (Tick Weight),"[2]; Group 2: pour-on 2.5% (w/v) in DES, 2.5 mg/kg, Day 97-104, Challenge Day 77",76.0%
same,Average % Efficacy (Tick Weight),"[2]; Group 2: pour-on 2.5% (w/v) in DES, 2.5 mg/kg, Day 111-118, Challenge Day 91",74.0%
same,Average % Efficacy (Tick Weight),"[2]; Group 2: pour-on 2.5% (w/v) in DES, 2.5 mg/kg, Day 132-139, Challenge Day 112",83.2%
same,Average % Efficacy (Tick Weight),"[2]; Group 2: pour-on 2.5% (w/v) in DES, 2.5 mg/kg, Day 146-153, Challenge Day 126",20.6%
same,Average % Efficacy (Tick Weight),"[2]; Group 2: pour-on 2.5% (w/v) in DES, 2.5 mg/kg, Day 160-167, Challenge Day 140",63.4%
same,Average % Efficacy (Tick Weight),"[2]; Group 3: pour-on 10% (w/v) in DES, 10 mg/kg, Day 1-21",85.4%
same,Average % Efficacy (Tick Weight),"[2]; Group 3: pour-on 10% (w/v) in DES, 10 mg/kg, Day 28-34, Challenge Day 7",95.2%
same,Average % Efficacy (Tick Weight),"[2]; Group 3: pour-on 10% (w/v) in DES, 10 mg/kg, Day 41-48, Challenge Day 21",98.3%
same,Average % Efficacy (Tick Weight),"[2]; Group 3: pour-on 10% (w/v) in DES, 10 mg/kg, Day 55-62, Challenge Day 35",96.6%
same,Average % Efficacy (Tick Weight),"[2]; Group 3: pour-on 10% (w/v) in DES, 10 mg/kg, Day 69-76, Challenge Day 49",99.2%
same,Average % Efficacy (Tick Weight),"[2]; Group 3: pour-on 10% (w/v) in DES, 10 mg/kg, Day 83-90, Challenge Day 63",98.6%
same,Average % Efficacy (Tick Weight),"[2]; Group 3: pour-on 10% (w/v) in DES, 10 mg/kg, Day 97-104, Challenge Day 77",90.2%
same,Average % Efficacy (Tick Weight),"[2]; Group 3: pour-on 10% (w/v) in DES, 10 mg/kg, Day 111-118, Challenge Day 91",96.0%
same,Average % Efficacy (Tick Weight),"[2]; Group 3: pour-on 10% (w/v) in DES, 10 mg/kg, Day 132-139, Challenge Day 112",92.4%
same,Average % Efficacy (Tick Weight),"[2]; Group 3: pour-on 10% (w/v) in DES, 10 mg/kg, Day 146-153, Challenge Day 126",61.4%
same,Average % Efficacy (Tick Weight),"[2]; Group 3: pour-on 10% (w/v) in DES, 10 mg/kg, Day 160-167, Challenge Day 140",76.3%
same,% Reduction,"[3]; Group 2: 6% in DES, 4.0 mg/kg, Day 2",93.2%
same,% Reduction,"[3]; Group 2: 6% in DES, 4.0 mg/kg, Day 9",100.0%
same,% Reduction,"[3]; Group 2: 6% in DES, 4.0 mg/kg, Day 16",100.0%
same,% Reduction,"[3]; Group 2: 6% in DES, 4.0 mg/kg, Day 23",100.0%
same,% Reduction,"[3]; Group 2: 6% in DES, 4.0 mg/kg, Day 30",97.8%
same,% Reduction,"[3]; Group 2: 6% in DES, 4.0 mg/kg, Day 37",95.3%
same,% Reduction,"[3]; Group 2: 6% in DES, 4.0 mg/kg, Day 44",97.5%
same,% Reduction,"[3]; Group 3: 6% in 40% DES/DMI, 4.0 mg/kg, Day 2",72.8%
same,% Reduction,"[3]; Group 3: 6% in 40% DES/DMI, 4.0 mg/kg, Day 9",100.0%
same,% Reduction,"[3]; Group 3: 6% in 40% DES/DMI, 4.0 mg/kg, Day 16",100.0%
same,% Reduction,"[3]; Group 3: 6% in 40% DES/DMI, 4.0 mg/kg, Day 23",100.0%
same,% Reduction,"[3]; Group 3: 6% in 40% DES/DMI, 4.0 mg/kg, Day 30",100.0%
same,% Reduction,"[3]; Group 3: 6% in 40% DES/DMI, 4.0 mg/kg, Day 37",93.5%
same,% Reduction,"[3]; Group 3: 6% in 40% DES/DMI, 4.0 mg/kg, Day 44",82.9%
same,% Reduction,"[3]; Group 4: 6% in DES with 30% Capryol 90, 4.0 mg/kg, Day 2",97.2%
same,% Reduction,"[3]; Group 4: 6% in DES with 30% Capryol 90, 4.0 mg/kg, Day 9",100.0%
same,% Reduction,"[3]; Group 4: 6% in DES with 30% Capryol 90, 4.0 mg/kg, Day 16",100.0%
same,% Reduction,"[3]; Group 4: 6% in DES with 30% Capryol 90, 4.0 mg/kg, Day 23",100.0%
same,% Reduction,"[3]; Group 4: 6% in DES with 30% Capryol 90, 4.0 mg/kg, Day 30",98.4%
same,% Reduction,"[3]; Group 4: 6% in DES with 30% Capryol 90, 4.0 mg/kg, Day 37",96.1%
same,% Reduction,"[3]; Group 4: 6% in DES with 30% Capryol 90, 4.0 mg/kg, Day 44",78.1%
same,efficacy 48 hours after infestation,"[3]; Treatment Group 2, throughout the six weeks of the study",≥ 90%
same,efficacy 48 hours after infestation,"[3]; Treatment Group 3, Day 9 through Day 44",≥ 90%
